In US20240392271A1, “ENGINEERED CASX REPRESSOR SYSTEMS” (Scribe Therapeutics Inc., priority 2021, published 2024):

Key:
[1] = system: B2M promoter; assay: B2M repression with gRNAs tiled across the B2M promoter, dXR1 vs ELXR #1 (Example 10); assay type: cell-based, human; conditions: HEK293T, six days after lipofection, unlike the effects seen with dXR1
Description: ELXR #1 containing the ZIM3-KRAB domain, as described in Example 6, and dXR1, as described in Example 1, were assessed in this experiment. Various gRNAs with scaffold 174 containing a B2M-targeting spacer were used in this experiment.
The next day, cells were selected with puromycin for four additional days. […] HEK293T cells transfected with either ELXR #1 or dXR1 with a non-targeting gRNA was included as an experimental control. FIG. 21A is a schematic illustrating the tiling of the various B2M-targeting gRNAs (spacers listed in Table 31) within a ˜1 KB window of the B2M promoter.

[2] = system: HBEGF locus; assay type: cell-based, human; conditions: dCasX491-KRAB lentiviral library, spacer 34.28, HEK293T, 2 ng/ml diphtheria toxin 48 hours

| Substance | B2M repression (HLA-negative cells) mediated by ELXR #1 with the spacer [1] | log2 (fold change) in abundance of the KRAB domain before and after selection [2] |
| --- | --- | --- |
| spacer 7.165: B2M-targeting, ELXR-specific spacer, UCCCUAUGUCCUUGCUGUUU, SEQ ID NO: 59667 (listed as RNA, chemistry not fully specified) | meaningful B2M repression |  |
| Zim3: ZIM3 KRAB domain, SEQ ID NO: 337 [reference compound] |  | 1.7787 |
